Results on eight compounds are retold here after patent US20260132172A1, “IN VITRO BIOSYNTHESIS OF DIVERSE PYRIDINE-BASED MACROCYCLIC PEPTIDES” (The Brd. of Trustees of the Univ. of Illinois, priority 2022, published 2026).

In assay [1] the test system is MroD. Briefly: Competition fluorescence polarization with fluorescein-Δ12MroA1, MroD. The class given is binding, Micromonospora rosaria. As to conditions: competition FP, 80 nM enzyme, 5 nM labeled Δ12MroA1. As for the experimental part:
(§1) The initial sample contained 80 nM enzyme, 5 nM labeled Δ12MroA1 peptide, and competitor peptide (concentration is from 20 μM to 100 μM, depending on the experiment). In a black 384-well plate (Corning 3575), 30 μL of initial sample was added to the first well, followed by 13 2-fold dilutions into subsequent wells containing 80 nM MBP-MroB and 5 nM labeled Δ12MroA1. The plate was covered from light and incubated at room temperature for 10 min, and then fluorescence polarization was measured (Biotek Synergy H4 hybrid reader) using the following filter (Ex: Em—485 nm/20 nm: 518 nm/20 nm). The obtained data was converted to anisotropy value and plotted against peptide concentration, and fitted to dose-response function:
(§2) Where: y=anisotropy value, A1=minimum anisotropy, A2=maximum anisotropy, p=Hill's coefficient, x=competitor concentration. The obtained IC50 was used to calculate inhibitor constant Krusing the following equation: 12
(§3) In cases where competitor concentration was not high enough to achieve a plateau, the competition curve was fitted with minimum anisotropy fixed to be the same value as the anisotropy value of the free probe solution. This calculation assumed that the labeled peptide was completely displaced from the enzyme binding pocket at a very high concentration of the competitor. […] The specific minimum anisotropy used in this experiment for both MroB and MroD was 65.

For the next assay, the system named is MroB. Kind of assay: Competition fluorescence polarization with fluorescein-Δ12MroA1, MroB. The class given is binding, Micromonospora rosaria. As to conditions: for IC50: competition FP, 80 nM enzyme, 5 nM labeled Δ12MroA1. Here is the method: as §1, §2, §3
A general note: Polarisation of emitted light reports the rotation of a fluorescent probe.

The next assay has as its system MroB/C. Kind of assay: MroB/C dehydration (Dha formation) of MroA precursor peptide variants, MALDI-TOF-MS / LC-MS/MS. In kind it is biochemical, Micromonospora rosaria. The conditions noted are these: for dehydration by MroBC (site and extent): MroBC assays followed by LC-MS/MS analysis, result in words. Here is the method: (§4) In a 0.65 mL protein low-binding Eppendorf tube placed on ice. 0.75 μL of purified mroA variant template DNA was mixed with 0.75 μL of Solution B and 1 μL of Solution A of PURExpress In vitro Protein Synthesis Kit (E6800L) purchased from NEB (total volume of reaction is 2.5 μL). The translation reactions were performed at 37° C. for 1 h on an aluminum block.
For a full MroBCD substrate scope investigation, a total translation volume for each variant of 7.5 μL was performed. 1.5 μL of 90 mM iodoacetamide (IAA) was added to quench dithiothreitol (DTT) in the translation reaction mixture, a thiol-based nucleophile that can react with electrophilic dehydroalanines generated from MroBC-catalyzed dehydration assays. The translation product was split into two parts with these corresponding volumes: 3 μL and 6 μL. In the 6 μL part. 10.2 μL of the enzyme mix containing enzymes and cofactors was added along with 1.8 μL 90 mM ATP (pH 7.5), which was used to initiate the reaction. The enzyme mix was made by adding these components in the following order: HEPES pH 7.5, MgCl2, glutamate, T. bispora tRNA^Glu (CUC), thermostable inorganic pyrophosphatase (TIPP), TEV (L56V/S135G/S219V) (w/w ratio with a total amount of MBP-tagged protein=1:10), MBP-MroB, MBP-MroC, and T. bispora GluRS. The enzyme mix was incubated 25 min at room temperature before adding to the translation product to facilitate in situ TEV-catalyzed cleavage of MBP from MBP-MroB and MBP-MroC. The enzymatic reaction proceeded for 1 h at room temperature. Overall, the concentration of components in the 18 μL reaction mix is as follows: 50 mM HEPES pH 7.5, 5 mM MgCl2. L-glutamate 1 mM, 3 μM T. bispora tRNA^Glu, 1 μM T. bispora GluRS, 2 μM MBP-MroB, 2 μM MBP-MroC, […], 0.027 U/μL TIPP, and 5 mM IAA. In addition, the 3 μL part was incubated with the same buffer lacking enzymes and tRNA as a translation control.
The reactions were performed similarly as described above, with 10 μM substrate concentration and without IAA. The total volume of each reaction is 100 μL.
Enzymatic assays were desalted using solid-phase extraction prior to LC-ESI-MS/MS analysis. Specifically, except for the thiazol(in)es-containing pyritide (which utilize 8 mg Pierce C18 Spin Column), the samples were applied to Toptip C18 (10-200 μL, Glygen Corp) wetted with 50 μL of 80% acetonitrile (0.1% formic acid) and equilibrate with 150 μL of 0.1% formic acid following the manufacturer instructions. The C18 columns (tips) are then washed with 150 μL of 0.1% formic acid and eluted using 100 μL 80% acetonitrile (0.1% formic acid). The samples were then dried utilizing lyophilization and redissolved in 25% acetonitrile (80 μL for enzymatic assays of in vitro-translated substrates and 200 μL for enzymatic assays of purified substrates). Then 20 μL of each sample was injected into an Agilent AdvanceBio Peptide Plus column (2.1×150 mm, 2.7 μm) equipped with an Agilent 6545B Q-TOF interfaced with an Agilent 1290 Infinity II LC system. Mobile phase solvents were composed of H2O, 0.1% formic acid (Solvent A), and acetonitrile 0.1% formic acid (Solvent B). The column compartment was maintained at 35° C. during all experiments. The column was equilibrated with 5 column volumes of starting mobile phase (95% A and 5% B) between injections. The gradient of all LC runs was as follows: 0-2 min: 95% A 5% B, 2-3 min: 70% A 30% B, 3-18 min: 20% A 80% B, 18-20 min: 5% A 95% B. The samples were run to waste for the first 3 min before applying to the mass spectrometer. Mass range was set from 100 to 1700 m/z (except for 412MroA1 W7G: 100-3000 m/z). MS parameters were as follows: gas, 320° C. at 8 L/min: nebulizer, 35 psig: nozzle voltage, 1000 V: sheath gas, 350° C. at 11 L/min: capillary, 3500 V: fragmentor, 125 V: skimmer, 65 V: MS scan rate (10) spectra/s): MS-MS scan rate (5 spectra/s); and isolation width (MS/MS), 1.3 m z. […]

A further assay relates to MroBCD. Kind of assay: MroBCD treatment of precursor peptides, overall pyritide biosynthesis. In kind it is biochemical, Micromonospora rosaria. The conditions noted are these: result in words. As for the experimental part: as §4
For a full MroBCD substrate scope investigation, a total translation volume for each variant of 7.5 μL was performed. 1.5 μL of 90 mM iodoacetamide (IAA) was added to quench dithiothreitol (DTT) in the translation reaction mixture, a thiol-based nucleophile that can react with electrophilic dehydroalanines generated from MroBC-catalyzed dehydration assays. The translation product was split into two parts with these corresponding volumes: 3 μL and 6 μL. In the 6 μL part. 10.2 μL of the enzyme mix containing enzymes and cofactors was added along with 1.8 μL 90 mM ATP (pH 7.5), which was used to initiate the reaction. […]
After incubation, the enzyme reaction (18 μL) was split into two equal parts. […] The crystallized spots were then analyzed using MALDI-TOF-MS (Bruker Ultraflex). […]

Assay [2] concerns MroD. Kind of assay: MroD [4+2] macrocyclization of didehydrated MroA2 variants, MALDI-TOF-MS. The class given is biochemical, Micromonospora rosaria. Also on record: key: +++ indicates enzyme activity roughly equal to wild-type MroA2; ++ indicates modestly reduced enzyme activity; + indicates severely reduced enzyme activity; − indicates no detectable enzyme activity (no macrocycles observed). The conditions noted are these: MroA2 multi-site variants; qualitatively estimated from leader peptide vs remaining didehydrated intermediate. As for the experimental part:
After incubation, the enzyme reaction (18 μL) was split into two equal parts. One part was treated with MBP-MroD such that the final concentration of MBP-MroD is 3 μM, and the other part was added the same volume but with buffer lacking MBP-MroD (50 mM HEPES, 300 mM NaCl, 2.5% glycerol, 0.5 mM TCEP). The reaction further proceeded for 1.5 h at room temperature. All reaction mixture was then desalted with solid-phase extraction using Ziptip with 0.6 μL C18 resin (EMD Millipore) and crystallized on an MTP384 steel target plate using either saturated sinapic acid or 50 mg/mL Super DHB [dissolved in 60% acetonitrile and 0.1% trifluoroacetic acid (TFA)] as the matrix. The crystallized spots were then analyzed using MALDI-TOF-MS (Bruker Ultraflex). The external standard for MALDI-TOF-MS analysis is ProteoMass Peptide and Protein MALDI-MS Calibration Kit (Sigma).

In assay [3] the target is MBP-MroD (Micromonospora rosaria MroD with maltose-binding protein fused to the N-terminus) (Micromonospora rosaria) [MBP: P0AEX9]. Briefly: fluorescence polarization, MBP-MroD titrated against labeled peptide.
Assay [4] concerns the target MBP-MroB (Micromonospora rosaria MroB with maltose-binding protein fused to the N-terminus) (Micromonospora rosaria) [MBP: P0AEX9]. Kind of assay: fluorescence polarization, MBP-MroB titrated against labeled peptide.

By IC50 is commonly meant the concentration at which inhibition is half-maximal. Usually Kd stands for a measure of binding affinity in units of concentration.

Where a SMILES comes first, the peptide text is derived from it.

For “H-SDLDIVDLDLAVDEELAALSVGGLGNTEVGASGWLGSGVI-OH [Δ12MroA1-W7G]”, the IC50 with MroD [1] came to 2400 ± 300 nM; in the assay on MroB, 8100 ± 3900 nM. Also, the “dehydration by MroBC (site and extent)” value in the assay on MroB/C is “only Ser1 is predominantly dehydrated”.

As for `CC[C@H](C)[C@H](NC(=O)[C@H](CC(=O)O)NC(=O)[C@H](CC(C)C)NC(=O)[C@H](CC(=O)O)NC(=O)[C@@H](N)CO)C(=O)N[C@H](C(=O)N[C@@H](CC(=O)O)C(=O)N[C@@H](CC(C)C)C(=O)N[C@@H](CC(=O)O)C(=O)N[C@@H](CC(C)C)C(=O)N[C@@H](C)C(=O)N[C@H](C(=O)N[C@@H](CC(=O)O)C(=O)N[C@@H](CCC(=O)O)C(=O)N[C@@H](CCC(=O)O)C(=O)N[C@@H](CC(C)C)C(=O)N[C@@H](C)C(=O)N[C@@H](C)C(=O)N[C@@H](CC(C)C)C(=O)N[C@@H](CO)C(=O)N[C@H](C(=O)NCC(=O)NCC(=O)N[C@@H](CC(C)C)C(=O)NCC(=O)N[C@@H](CC(N)=O)C(=O)N[C@H](C(=O)N[C@@H](CCC(=O)O)C(=O)N[C@H](C(=O)NCC(=O)N[C@@H](C)C(=O)N[C@@H](CO)C(=O)NCC(=O)N[C@@H](Cc1c[nH]c2ccccc12)C(=O)N[C@@H](CC(C)C)C(=O)NCC(=O)N[C@@H](CO)C(=O)N[C@@H](Cc1c[nH]c2ccccc12)C(=O)N[C@H](C(=O)N[C@H](C(=O)OC)[C@@H](C)CC)C(C)C)C(C)C)[C@@H](C)O)C(C)C)C(C)C)C(C)C` [Δ12MroA1-COOMe] (H-SDLDIVDLDLAVDEELAALSVGGLGNTEVGASGWLGSWVI-OMe), the IC50 in the assay on MroD [1] was 400 ± 60 nM; with MroB, 4200 ± 1700 nM. Moreover, the “loss in binding affinity to MroB” value in the assay with MroB (relative to Δ12MroA1) was approximately 8 fold.

On to “SGFFGRSWLI [MroA2, wild-type precursor peptide of M. rosaria]”, for which the “overall pyritide biosynthesis (dehydration and macrocyclization) by MroBCD” value in the assay on MroBCD is on record as “yielding the expected pyritides”. Further, the “Relative MroD conversion” value with MroD [2] is on record as “+++”. Also, the Dha formation in the assay with MroB/C (MroA2 multi-site variants, in vitro translated, MALDI-TOF-MS) amounted to 2 Dha.

For the compound “H-SDLDIVDLDLAVDEELAALSVGGLGNTEVGASGWLGSWVI-OH [Δ12MroA1]”, the IC50 in the assay with MroD [1] stood at 900 ± 20 nM; with MroB it was 680 ± 40 nM. In addition, the “overall pyritide biosynthesis (dehydration and macrocyclization) by MroBCD” value in the assay with MroBCD is “full dehydration and macrocyclization”.

On to “H-SDLDIVDLDLAVDEELAALSVGGLGNTEVGASGWLGSWVG-OH [Δ12MroA1-I9G]”, for which the half-maximal inhibitory concentration (IC50) was found to be 910 ± 90 nM in the assay on MroD [1] and 2000 ± 600 nM in the assay on MroB.

As for “Ac-GASGWLGSWVI-OH [GlyAla-MroA1 core, Ac-GASGWLGSWVI]”, the results for the IC50 in the assay on MroD [1] and in the assay on MroB were 40900 ± 5000 nM and 27200 ± 1900 nM, respectively. The “dehydration by MroBC (site and extent)” value with MroB/C is “only Ser6 is dehydrated”.

For “fluorescein-Δ12MroA1 (Δ12MroA1 N-terminally labeled with fluorescein) (peptide)”, the Kd in assay [3] is 12 nM; in assay [4], 60 nM.

In the case of “H-SDLDIVDLDLAVDEELAALSVGGLGNTEVGA-OH [Δ12MroA1 Leader]”, the IC50 amounted to 16000 ± 4400 nM in the assay with MroD [1] and 19400 ± 1600 nM with MroB.
